These are literature values, as cited in patent US9974867B2, “Cytotoxic benzodiazepine derivatives” (priority 2014, dated 2018).

SMILES strings stand for the structures.

For the data set the following is noted: Phase I clinical evaluation; cited from earlier work.

For `C=C1C[C@H]2C=Nc3cc(OCCCOc4cc5c(cc4OC)C(=O)N4CC(=C)C[C@H]4C=N5)c(OC)cc3C(=O)N2C1` [SJG-136], the maximum tolerated dose is 45 μg/m^2.
